Our source for the IC50 and inhibition values is ChEMBL document CHEMBL4602633, “Discovery of coumarin-based selective aldehyde dehydrogenase 1A1 inhibitors with glucose metabolism improving activity” (Eur J Med Chem, 2020).

The target in the first test is T1, Aldehyde dehydrogenase 1A1 (Homo sapiens, UniProt P00352).
T1 sequence (P00352 whole entry): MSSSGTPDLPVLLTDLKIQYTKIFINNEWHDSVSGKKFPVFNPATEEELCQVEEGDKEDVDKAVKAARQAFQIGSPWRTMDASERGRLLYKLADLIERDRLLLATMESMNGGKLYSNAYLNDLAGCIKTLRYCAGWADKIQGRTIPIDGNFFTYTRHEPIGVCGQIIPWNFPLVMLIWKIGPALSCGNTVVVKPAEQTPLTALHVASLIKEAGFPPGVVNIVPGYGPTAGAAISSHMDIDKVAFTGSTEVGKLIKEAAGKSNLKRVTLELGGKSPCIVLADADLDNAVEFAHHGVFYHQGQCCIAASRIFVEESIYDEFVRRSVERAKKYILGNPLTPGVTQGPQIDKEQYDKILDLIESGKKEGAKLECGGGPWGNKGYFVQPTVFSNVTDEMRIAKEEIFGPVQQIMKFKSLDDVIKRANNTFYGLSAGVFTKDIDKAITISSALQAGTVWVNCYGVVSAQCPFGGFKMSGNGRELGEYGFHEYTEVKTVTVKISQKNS
The test can be described thus: Inhibition of N-terminal Met/His6-tagged recombinant human ALDH1A1 (Ser2-Ser501 residues) expressed in Escherichia coli cells using propionaldehyde as substrate preincubated for 15 mins followed by substrate addition by spectrophotometric method.
For orientation: IC50 means the concentration needed to halve the response being measured. With `CC(C)=CCN(C(=O)CCN1CCN(C(=O)c2cccc([N+](=O)[O-])c2)CC1)c1ccc2c(C)cc(=O)oc2c1`, the IC50 was 29.3 µM.

Another test concerns the target T2, Aldehyde dehydrogenase 1A1 (Homo sapiens) (UniProt P00352).
T2 sequence (whole entry): T1 sequence (P00352 whole entry)
The experiment in a line: Inhibition of N-terminal Met/His6-tagged recombinant human ALDH1A1 (Ser2-Ser501 residues) expressed in Escherichia coli cells at 10 uM using propionaldehyde as substrate preincubated for 15 mins followed by substrate addition by spectrophotometric method relative to control.
By inhibition is commonly meant the percentage by which the read-out fell short of the control. In the case of `Cc1cc(=O)oc2cc(N(CC3CCCCC3)C(=O)CCN3CCN(C(=O)c4ccco4)CC3)ccc12`, the inhibition turned out to be 26.2%.

In the case of `Cc1cc(=O)oc2cc(N(CC3CC3)C(=O)CCN3CCN(C(=O)c4ccco4)CC3)ccc12`, the inhibition came to 32%.

Turning to `CC(C)=CCN(C(=O)CCN1CCN(C(=O)c2ccc(C#N)cc2)CC1)c1ccc2c(C)cc(=O)oc2c1`, the inhibition was 34.1%.

For `CC(C)=CCN(C(=O)CCN1CCN(C(=O)c2ccc3c(c2)OCO3)CC1)c1ccc2c(C)cc(=O)oc2c1`, the inhibition amounted to 50.8%.

Turning to `CC(C)=CCN(C(=O)CCN1CCN(C(=O)c2cccc([N+](=O)[O-])c2)CC1)c1ccc2c(C)cc(=O)oc2c1`, the inhibition came to 55.4%.

In the case of `CCCCN(C(=O)CCN1CCN(C(=O)c2ccco2)CC1)c1ccc2c(C)cc(=O)oc2c1`, the inhibition amounted to 26.5%.

Turning to `CC(C)=CCN(C(=O)CCN1CCN(C(=O)c2ccc(F)cc2)CC1)c1ccc2c(C)cc(=O)oc2c1`, the inhibition is 25.1%.

Turning to `Cc1cc(=O)oc2cc(N(CCC(C)C)C(=O)CCN3CCN(C(=O)c4ccco4)CC3)ccc12`, the inhibition was 25.5%.

For the molecule `CCCN(C(=O)CCN1CCN(C(=O)c2ccco2)CC1)c1ccc2c(C)cc(=O)oc2c1`, the inhibition was determined as 50.7%.

In the case of `CC(C)=CCN(C(=O)CN1CCN(C(=O)c2ccco2)CC1)c1ccc2c(C)cc(=O)oc2c1`, the inhibition was 33.6%.

Turning to `Cc1cc(=O)oc2cc(N(CC3CCCC3)C(=O)CCN3CCN(C(=O)c4ccco4)CC3)ccc12`, the inhibition was determined as 17.4%.

Regarding `Cc1cccc(CN(C(=O)CCN2CCN(C(=O)c3ccco3)CC2)c2ccc3c(C)cc(=O)oc3c2)c1`, the inhibition stood at 9.77%.

As to `CC(C)=CCN(C(=O)CCN1CCN(C(=O)c2ccncc2)CC1)c1ccc2c(C)cc(=O)oc2c1`, the inhibition amounted to 23.5%.

For the molecule `CC(C)=CCN(C(=O)CCN1CCN(C(=O)c2ccc(C(F)(F)F)cc2)CC1)c1ccc2c(C)cc(=O)oc2c1`, the inhibition amounted to 33.7%.

For `CC(C)=CCN(C(=O)CCN1CCN(C(=O)c2ccc([N+](=O)[O-])cc2)CC1)c1ccc2c(C)cc(=O)oc2c1`, the inhibition came to 47.1%.

Take `CC(C)=CCN(C(=O)CCN1CCN(C(=O)c2cccnc2)CC1)c1ccc2c(C)cc(=O)oc2c1`: the inhibition is 26.6%.

As for `CC(C)=CCN(C(=O)CCN1CCN(C(=O)c2ccccc2F)CC1)c1ccc2c(C)cc(=O)oc2c1`, the inhibition is 51.8%.

Consider `Cc1cc(=O)oc2cc(N(Cc3ccccc3)C(=O)CCN3CCN(C(=O)c4ccco4)CC3)ccc12`, for which the inhibition was found to be 2.96%.

Take `CC(C)=CCN(C(=O)CCCN1CCN(C(=O)c2ccco2)CC1)c1ccc2c(C)cc(=O)oc2c1`: the inhibition came out at 4.77%.

As to `Cc1cc(=O)oc2cc(N(CC3CCC3)C(=O)CCN3CCN(C(=O)c4ccco4)CC3)ccc12`, the inhibition amounted to 35.1%.

Regarding `Cc1ccccc1CN(C(=O)CCN1CCN(C(=O)c2ccco2)CC1)c1ccc2c(C)cc(=O)oc2c1`, the inhibition amounted to 13.2%.

On to `Cc1ccc(CN(C(=O)CCN2CCN(C(=O)c3ccco3)CC2)c2ccc3c(C)cc(=O)oc3c2)cc1`, for which the inhibition was found to be 6.43%.

With `CC(C)=CCN(C(=O)CCN1CCN(C(=O)c2ccc(C)cc2)CC1)c1ccc2c(C)cc(=O)oc2c1`, the inhibition was determined as 49.7%.
